Assay results: ChEMBL document CHEMBL4359905, “Discovery, structural insight, and bioactivities of BY27 as a selective inhibitor of the second bromodomains of BET proteins” (Eur J Med Chem, 2019)

What was measured:
[1] = test system: MV4-11; test: Antiproliferative activity against human MV4-11 cells assessed as cell growth inhibition after 4 days by CCK8 assay; assay type: functional, cell-based; details: MV4-11, 96 h
[2] = target: T1, Bromodomain-containing protein 4 (Homo sapiens, UniProt O60885); test: Binding affinity to human recombinant BRD4 BD1 (44 to 168 residues) by fluorescence polarization assay
[3] = target: T1, Bromodomain-containing protein 4; test: Binding affinity to human recombinant BRD4 BD2 (333 to 460 residues) by fluorescence polarization assay
[4] = test system: MM1.S; test: Antiproliferative activity against human MM1S cells assessed as cell growth inhibition after 4 days by CCK8 assay; assay type: functional, cell-based; details: 96 h
[5] = target: T2, Bromodomain-containing protein 3 (Homo sapiens, UniProt Q15059); test: Binding affinity to human recombinant BRD3 BD1 (24 to 144 residues) by fluorescence polarization assay
Target sequence in this assay (Q15059 whole entry, the tested form may be a part): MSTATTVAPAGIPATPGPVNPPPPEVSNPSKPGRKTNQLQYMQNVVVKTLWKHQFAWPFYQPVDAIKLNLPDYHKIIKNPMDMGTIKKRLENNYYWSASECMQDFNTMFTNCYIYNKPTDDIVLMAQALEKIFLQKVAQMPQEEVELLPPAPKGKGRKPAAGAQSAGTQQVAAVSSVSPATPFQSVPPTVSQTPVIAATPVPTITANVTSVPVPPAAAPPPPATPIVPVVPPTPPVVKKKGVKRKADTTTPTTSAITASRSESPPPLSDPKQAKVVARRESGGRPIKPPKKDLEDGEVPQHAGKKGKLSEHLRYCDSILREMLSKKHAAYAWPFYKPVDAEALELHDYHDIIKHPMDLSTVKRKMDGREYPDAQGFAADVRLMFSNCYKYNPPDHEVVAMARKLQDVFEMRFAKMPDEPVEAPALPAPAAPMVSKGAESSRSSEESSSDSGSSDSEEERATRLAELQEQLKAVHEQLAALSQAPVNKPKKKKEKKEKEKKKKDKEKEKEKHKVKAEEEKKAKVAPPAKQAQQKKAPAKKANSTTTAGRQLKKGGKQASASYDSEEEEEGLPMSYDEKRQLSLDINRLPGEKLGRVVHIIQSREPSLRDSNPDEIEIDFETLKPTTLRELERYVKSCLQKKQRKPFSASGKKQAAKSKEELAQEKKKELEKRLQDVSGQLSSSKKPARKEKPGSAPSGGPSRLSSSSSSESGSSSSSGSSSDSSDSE

[6] = target: T2, Bromodomain-containing protein 3; test: Binding affinity to human recombinant BRD3 BD2 (306 to 417 residues) by fluorescence polarization assay
Target sequence in this assay (Q15059 whole entry, the tested form may be a part): as above

[7] = target: T3, Bromodomain-containing protein 2 (Homo sapiens, UniProt P25440); test: Binding affinity to human recombinant BRD2 BD1 (72 to 205 residues) by fluorescence polarization assay
[8] = target: T3, Bromodomain-containing protein 2; test: Binding affinity to human recombinant BRD2 BD2 (349 to 460 residues) by fluorescence polarization assay
[9] = target: T2, Bromodomain-containing protein 3; test: Selectivity index, ratio of Ki for human recombinant BRD3 BD1 (24 to 144 residues) to Ki for human recombinant BRD3 BD2 (306 to 417 residues)
Target sequence in this assay (Q15059 2-726 limits assumed): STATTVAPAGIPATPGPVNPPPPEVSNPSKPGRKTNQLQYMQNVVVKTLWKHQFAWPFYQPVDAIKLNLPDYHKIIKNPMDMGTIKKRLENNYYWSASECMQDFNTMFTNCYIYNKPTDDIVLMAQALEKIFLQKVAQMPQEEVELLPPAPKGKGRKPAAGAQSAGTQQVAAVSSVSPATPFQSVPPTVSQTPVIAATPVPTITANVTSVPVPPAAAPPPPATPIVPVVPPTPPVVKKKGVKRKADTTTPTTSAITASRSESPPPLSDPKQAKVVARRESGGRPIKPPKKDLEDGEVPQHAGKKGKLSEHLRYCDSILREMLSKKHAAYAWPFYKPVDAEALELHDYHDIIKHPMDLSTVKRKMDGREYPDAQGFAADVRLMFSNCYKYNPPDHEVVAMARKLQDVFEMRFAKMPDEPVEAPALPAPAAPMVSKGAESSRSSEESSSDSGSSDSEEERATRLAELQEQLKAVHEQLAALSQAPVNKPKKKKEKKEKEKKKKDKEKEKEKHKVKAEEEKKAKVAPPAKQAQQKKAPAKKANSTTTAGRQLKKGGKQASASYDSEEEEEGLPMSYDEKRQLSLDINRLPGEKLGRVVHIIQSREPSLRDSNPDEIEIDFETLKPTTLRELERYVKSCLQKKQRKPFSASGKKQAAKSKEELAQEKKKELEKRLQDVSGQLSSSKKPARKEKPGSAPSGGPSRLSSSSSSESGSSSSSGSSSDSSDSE

[10] = test system: MV4-11; test: Downregulation of cMyc mRNA expression in human MV4-11 cells after 24 hrs by qRT-PCR analysis; assay type: functional, cell-based
[11] = test system: MV4-11; test: Upregulation of p21 mRNA expression in human MV4-11 cells after 24 hrs by qRT-PCR analysis; assay type: functional, cell-based
[12] = test system: HepG2; test: Downregulation of ARID5B in human HepG2 cells after 4 hrs by qRT-PCR analysis; assay type: functional, cell-based
[13] = test system: HepG2; test: Downregulation of G6PC in human HepG2 cells after 4 hrs by qRT-PCR analysis; assay type: functional, cell-based
[14] = test system: HepG2; test: Downregulation of […] in human HepG2 cells after 4 hrs by qRT-PCR analysis; assay type: functional, cell-based
[15] = test system: MV4-11; test: Decrease in c-Myc protein expression in human MV4-11 cells incubated for 24 hrs by western blot analysis; assay type: functional, cell-based
[16] = test system: MV4-11; test: Increase in p21 protein expression in human MV4-11 cells incubated for 24 hrs by western blot analysis; assay type: functional, cell-based

T3 sequence (P25440 whole entry, the tested form may be a part): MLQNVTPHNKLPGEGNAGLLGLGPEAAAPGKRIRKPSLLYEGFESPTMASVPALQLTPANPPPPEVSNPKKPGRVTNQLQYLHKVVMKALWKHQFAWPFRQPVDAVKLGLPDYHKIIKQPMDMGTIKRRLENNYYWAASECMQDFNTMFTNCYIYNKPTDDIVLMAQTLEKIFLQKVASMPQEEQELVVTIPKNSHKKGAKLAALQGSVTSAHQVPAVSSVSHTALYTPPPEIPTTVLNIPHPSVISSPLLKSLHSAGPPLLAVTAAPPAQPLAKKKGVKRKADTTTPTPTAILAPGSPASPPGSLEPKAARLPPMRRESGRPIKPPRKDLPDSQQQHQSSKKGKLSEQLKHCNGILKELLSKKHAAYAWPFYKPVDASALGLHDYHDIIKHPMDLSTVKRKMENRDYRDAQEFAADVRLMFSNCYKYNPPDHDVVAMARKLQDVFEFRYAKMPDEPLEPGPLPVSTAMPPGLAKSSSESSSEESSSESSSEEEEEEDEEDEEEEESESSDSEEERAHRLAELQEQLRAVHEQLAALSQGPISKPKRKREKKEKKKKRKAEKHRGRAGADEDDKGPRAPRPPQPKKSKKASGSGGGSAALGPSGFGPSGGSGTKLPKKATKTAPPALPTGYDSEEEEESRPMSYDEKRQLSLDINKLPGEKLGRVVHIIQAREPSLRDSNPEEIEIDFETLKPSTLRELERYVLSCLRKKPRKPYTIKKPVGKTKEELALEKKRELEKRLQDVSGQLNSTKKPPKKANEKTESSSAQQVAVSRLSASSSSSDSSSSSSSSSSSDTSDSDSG

Work on `Cc1nnc2n1-c1ccc(NC(=O)C3CCN(C)CC3)cc1C(Nc1ccc(Cl)cc1)CC2` (centres undefined) yielded an IC50 [1] of 2410 nM, a Ki [2] of 1490 nM and a Ki [3] of 102 nM. The IC50 [4] was 8510 nM.

Compound `Cc1nnc2n1-c1ccc(-c3ccc(N)nc3)cc1C(Nc1cccc(CO)c1)CC2` (centres undefined) has a Ki [2] of 1960 nM and a Ki [3] of 128 nM.

`Cc1nnc2n1-c1ccc(-c3ccc(CN4CCN(C)CC4)cc3)cc1C(Nc1ccc(Cl)cc1)CC2` (centres undefined) was tested, and the IC50 [1] was 112 nM, the Ki [2] was 271 nM and the Ki [3] was 18 nM. It also gave an IC50 [4] of 241 nM.

Compound `Cc1nnc2n1-c1ccc(-c3ccc(N)nc3)cc1C(Nc1cc(C3CC3)nn1C)CC2` (centres undefined) has a Ki [2] of 1960 nM and a Ki [3] of 376 nM.

Compound `Cc1nnc2n1-c1ccc(-c3cncs3)cc1C(Nc1ccc(Cl)cc1)CC2` (centres undefined) has an IC50 [1] of 374 nM, a Ki [2] of 266 nM and a Ki [3] of 34.8 nM. For the same compound, the IC50 [4] was 345 nM.

`Cc1nnc2n1-c1ccc(-c3ccc(N)nc3)cc1C(Nc1nn(C)c3ccccc13)CC2` (centres undefined) gave a Ki [2] of 10600 nM and a Ki [3] of 617 nM.

Compound `Cc1nnc2n1-c1ccc(-c3cnn(C)c3)cc1C(Nc1ccc3ccccc3c1)CC2` (centres undefined) has an IC50 [1] of 116 nM, a Ki [2] of 419 nM and a Ki [3] of 24.7 nM. The IC50 [4] was 535 nM.

`Cc1nnc2n1-c1ccc(-c3cn[nH]c3)cc1C(Nc1ccc(Cl)cc1)CC2` (centres undefined) showed an IC50 [1] of 99.1 nM, a Ki [2] of 126 nM and a Ki [3] of 15.9 nM. The Ki [5] was 114 nM, the Ki [6] was 13.9 nM and the Ki [7] was 270 nM. The Ki [8] was 19.1 nM, the IC50 [4] was 259 nM and the Ratio Ki [9] was 8.

`Cc1nnc2n1-c1ccc(-c3ccnc(N)c3)cc1C(Nc1ccc(Cl)cc1)CC2` (centres undefined) gave an IC50 [1] of 500 nM, a Ki [2] of 535 nM and a Ki [3] of 74.7 nM. For the same compound, the IC50 [4] was 345 nM.

In the case of `Cc1ccc(NC2CCc3nnc(C)n3-c3ccc(-c4ccc(N)nc4)cc32)cc1` (centres undefined), the Ki [2] is reported as 540 nM and the Ki [3] is reported as 109 nM.

Compound `COc1ccc2c(c1)C(Nc1ccc(Cl)cc1)CCc1nnc(C)n1-2` (centres undefined) has an IC50 [1] of 1160 nM, a Ki [2] of 1300 nM and a Ki [3] of 249 nM. It also gave an IC50 [4] of 1400 nM.

Compound `Cc1nnc2n1-c1ccc(-c3cnn(C)c3)cc1C(Nc1cccc3ccccc13)CC2` (centres undefined) has an IC50 [1] of 107 nM, a Ki [2] of 294 nM and a Ki [3] of 21.3 nM. For the same compound, the IC50 [4] was 533 nM.

`Cc1nnc2n1-c1ccc(-c3cnn(C)c3)cc1C(Nc1ccc(Cl)cc1)CC2` (centres undefined) showed an IC50 [1] of 84.4 nM, a Ki [2] of 144 nM and a Ki [3] of 14.8 nM. The Ki [5] was 188 nM, the Ki [6] was 11.1 nM and the Ki [7] was 275 nM. For the same compound, the Ki [8] was 9.1 nM, the IC50 [4] was 64.4 nM and the Ratio Ki [9] was 17.

`Cc1nnc2n1-c1ccc(-c3ccc(C(=O)O)cc3)cc1C(Nc1ccc(Cl)cc1)CC2` (centres undefined) gave an IC50 [1] of 3260 nM, a Ki [2] of 247 nM and a Ki [3] of 47.3 nM. For the same compound, the IC50 [4] was 7060 nM.

Work on `Cc1nnc2n1-c1ccc(-c3cnoc3)cc1C(Nc1ccc(Cl)cc1)CC2` (centres undefined) yielded an IC50 [1] of 6560 nM, a Ki [2] of 232 nM and a Ki [3] of 83.7 nM. The IC50 [4] was 7720 nM.

`Cc1nnc2n1-c1ccc(-c3cnc(N)nc3)cc1C(Nc1ccc(Cl)cc1)CC2` (centres undefined) showed an IC50 [1] of 401 nM, a Ki [2] of 726 nM and a Ki [3] of 66.2 nM. For the same compound, the IC50 [4] was 1020 nM.

`Cc1nnc2n1-c1ccc(-c3ccc(N)nc3)cc1C(Nc1cccc3ccccc13)CC2` (centres undefined) gave a Ki [2] of 712 nM and a Ki [3] of 41.5 nM.

`Cc1nnc2n1-c1ccc(-c3ccc(N4CCN(C)CC4)cc3)cc1C(Nc1ccc(Cl)cc1)CC2` (centres undefined) showed an IC50 [1] of 70.8 nM, a Ki [2] of 115 nM and a Ki [3] of 17.4 nM. The IC50 [4] was 210 nM.

For `COc1ccc(NC2CCc3nnc(C)n3-c3ccc(-c4ccc(N)nc4)cc32)cc1` (centres undefined), the Ki [2] was 1910 nM and the Ki [3] was 174 nM.

`Cc1nnc2n1-c1ccc(-c3ccc(N)nc3)cc1C(Nc1ccc(C(F)(F)F)cc1)CC2` (centres undefined) gave a Ki [2] of 576 nM and a Ki [3] of 147 nM.

For `Cc1nnc2n1-c1ccc(N)cc1C(Nc1ccc(Cl)cc1)CC2` (centres undefined), the IC50 [1] was 4330 nM, the Ki [2] was 11100 nM and the Ki [3] was 1230 nM. The IC50 [4] was 7950 nM.

`CC(=O)Nc1ccc2c(c1)C(Nc1ccc(Cl)cc1)CCc1nnc(C)n1-2` (centres undefined) showed an IC50 [1] of 1030 nM, a Ki [2] of 457 nM and a Ki [3] of 50.3 nM. For the same compound, the IC50 [4] was 1440 nM.

Work on `Cc1nnc2n1-c1ccc(-c3ccc(N)nc3)cc1C(Nc1ccc(F)cc1)CC2` (centres undefined) yielded a Ki [2] of 725 nM and a Ki [3] of 92.6 nM.

In the case of `Cc1nnc2n1-c1ccc(-c3ccc(N)nc3)cc1C(Nc1ccc(Cl)cc1)CC2` (centres undefined), the Ki [2] is reported as 636 nM and the Ki [3] is reported as 68.4 nM.

For `Cc1nnc2n1-c1ccc(-c3cnn(C)c3)cc1[C@@H](Nc1ccc(Cl)cc1)CC2`, the IC50 [1] was 7730 nM, the Ki [2] was 5000 nM and the Ki [3] was 945 nM. The IC50 [4] was 4240 nM.

`Cc1nnc2n1-c1ccc(-c3ccc(N(C)C)cc3)cc1C(Nc1ccc(Cl)cc1)CC2` (centres undefined) gave an IC50 [1] of 1950 nM, a Ki [2] of 466 nM and a Ki [3] of 65.4 nM. It also gave an IC50 [4] of 1020 nM.

Work on `Cc1nnc2n1-c1ccc(-c3ccc(CCCN4CCN(C)CC4)cc3)cc1C(Nc1ccc(Cl)cc1)CC2` (centres undefined) yielded an IC50 [1] of 127 nM, a Ki [2] of 81.7 nM and a Ki [3] of 12.3 nM. The IC50 [4] was 110 nM.

In the case of `Cc1nnc2n1-c1ccc(-c3ccc(N)nc3)cc1C(Nc1ccc(C#N)cc1)CC2` (centres undefined), the Ki [2] is reported as 508 nM and the Ki [3] is reported as 80.6 nM.

Work on `Cc1nnc2n1-c1ccc(-c3ccc4c(c3)CCC(=O)N4)cc1C(Nc1ccc(Cl)cc1)CC2` (centres undefined) yielded an IC50 [1] of 143 nM, a Ki [2] of 310 nM and a Ki [3] of 68.8 nM. The IC50 [4] was 132 nM.

For `Cc1nnc2n1-c1ccc(C3=CCN(C)CC3)cc1C(Nc1ccc(Cl)cc1)CC2` (centres undefined), the IC50 [1] was 1780 nM, the Ki [2] was 4320 nM and the Ki [3] was 413 nM. It also gave an IC50 [4] of 3240 nM.

Compound `CCn1cc(-c2ccc3c(c2)C(Nc2ccc(Cl)cc2)CCc2nnc(C)n2-3)cn1` (centres undefined) has an IC50 [1] of 94.6 nM, a Ki [2] of 77.2 nM and a Ki [3] of 14.8 nM. For the same compound, the Ki [5] was 99.7 nM, the Ki [6] was 8.2 nM and the Ki [7] was 193 nM. The Ki [8] was 8.9 nM, the IC50 [4] was 63.5 nM and the Ratio Ki [9] was 12.

In the case of `Cc1nnc2n1-c1ccc(Br)cc1C(Nc1ccc(Cl)cc1)CC2` (racemic), the IC50 [1] is reported as 2040 nM, the Ki [2] is reported as greater than 2000 nM and the Ki [3] is reported as 736 nM. The IC50 [4] was 5310 nM.

For `Cc1sc2c(c1C)C(c1ccc(Cl)cc1)=N[C@@H](CC(=O)Nc1ccc(O)cc1)c1nnc(C)n1-2` [BIRABRESIB], the IC50 [1] was 17.6 nM, the IC50 [4] was 22.7 nM and the inhibition [10] was “Dose-dependent effect”. The Activity [11] was “Dose-dependent effect”, the inhibition [12] was “Dose-dependent effect” and the inhibition [13] was “Dose-dependent effect”. The inhibition [14] was “Dose-dependent effect”, the inhibition [15] was “Dose-dependent effect” and the Activity [16] was “Dose-dependent effect”.

Work on `Cc1nnc2n1-c1ccc(-c3ccc(CCN4CCN(C)CC4)cc3)cc1C(Nc1ccc(Cl)cc1)CC2` (centres undefined) yielded an IC50 [1] of 165 nM, a Ki [2] of 372 nM and a Ki [3] of 54.4 nM. For the same compound, the IC50 [4] was 258 nM.

For `Cc1nnc2n1-c1ccc(C3=CCNCC3)cc1C(Nc1ccc(Cl)cc1)CC2` (centres undefined), the IC50 [1] was 2290 nM, the Ki [2] was 4450 nM and the Ki [3] was 284 nM. It also gave an IC50 [4] of 5700 nM.

With `Cc1nnc2n1-c1ccc(NS(C)(=O)=O)cc1C(Nc1ccc(Cl)cc1)CC2` (centres undefined) the IC50 [1] was 4820 nM, the Ki [2] was 3350 nM and the Ki [3] was 918 nM. It also gave an IC50 [4] of 9060 nM.
